Measured values published in patent US12398120B2, “Substituted hydantoinamides as ADAMTS7 antagonists” (BAYER AKTIENGESELLSCHAFT, priority 2019, dated 2025).

Molecular target: ADAMTS4 (Homo sapiens (Human), UniProt O75173)
Assay: Selectivity assay for ADAMTS-7 modulators: ADAMTS4 (FRET substrate)
Format: biochemical
Details: ADAMTS4 (R&D 4307-AD) 50 nM, substrate Dabcyl-EEVKAKVQPY-Glu(Edans)-NH2 1 μM, 120 min, 32° C.
Description: 1 μl test compound solution (dissolved in DMSO, at the corresponding concentration) or pure DMSO as a control was added per well. The enzymatic reaction was initiated by addition of 25 μl of the respective concentration of the respective FRET substrate (see table 2 below) in reaction buffer.
The increase of fluorescence intensity was measured in appropriate fluorescence plate reader (e.g. TECAN Ultra) using the respective wavelengths for excitation and emission. IC50 values were calculated from percentage of inhibition of enzyme activity as a function of test compound concentration.

Sequence of ADAMTS4 (O75173 213-685): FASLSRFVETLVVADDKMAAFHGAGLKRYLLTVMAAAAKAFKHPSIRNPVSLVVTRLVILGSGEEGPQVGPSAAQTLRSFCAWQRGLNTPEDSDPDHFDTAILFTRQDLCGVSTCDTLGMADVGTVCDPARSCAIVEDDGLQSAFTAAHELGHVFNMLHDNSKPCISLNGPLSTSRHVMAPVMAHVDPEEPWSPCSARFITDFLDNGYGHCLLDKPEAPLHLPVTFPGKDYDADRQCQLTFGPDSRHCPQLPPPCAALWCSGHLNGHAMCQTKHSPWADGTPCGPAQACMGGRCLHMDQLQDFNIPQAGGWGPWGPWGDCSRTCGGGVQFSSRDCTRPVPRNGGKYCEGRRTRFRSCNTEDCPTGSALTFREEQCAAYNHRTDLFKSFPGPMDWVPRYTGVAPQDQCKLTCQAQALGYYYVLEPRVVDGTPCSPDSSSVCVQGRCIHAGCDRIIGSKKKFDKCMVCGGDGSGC

SMILES | IC50
CCCC1(CNC(=O)c2ccccc2-c2ccc(C(F)(F)F)cc2)NC(=O)NC1=O (racemic) [Example 24, Rac-N-[(2,5-Dioxo-4-Propylimidazolidin-4-Yl)Methyl]-4′-(Trifluoromethyl)[Biphenyl]-2-Carboxamide] | > 50 µM
CC(C)(C)C1(CNC(=O)c2ccccc2-c2ccc(C(F)(F)F)cc2)NC(=O)NC1=O (racemic) [Example 25, Rac-N-[(4-Tert-Butyl-2,5-Dioxoimidazolidin-4-Yl)Methyl]-4′-(Trifluoromethyl)[Biphenyl]-2-Carboxamide] | > 50 µM
O=C1NC(=O)C(CNC(=O)c2ccccc2-c2ccc(C(F)(F)F)cc2)(C2CCOCC2)N1 (racemic) [Example 29, Rac-N-{[2,5-Dioxo-4-(Tetrahydro-2H-Pyran-4-Yl)Imidazolidin-4-Yl]Methyl}-4′-(Trifluoromethyl)[Biphenyl]-2-Carboxamide] | > 50 µM
O=C1NC(=O)C(CNC(=O)c2ccccc2-c2ccc(C(F)(F)F)cc2)(c2cnccn2)N1 (racemic) [Example 30, Rac-N-{[2,5-Dioxo-4-(Pyrazin-2-Yl)Imidazolidin-4-Yl]Methyl}-4′-(Trifluoromethyl)[Biphenyl]-2-Carboxamide] | 45 µM
Cc1nonc1C1(CNC(=O)c2ccccc2-c2ccc(C(F)(F)F)cc2)NC(=O)NC1=O (racemic) [Example 32, Rac-N-{[4-(4-Methyl-1,2,5-Oxadiazol-3-Yl)-2,5-Dioxoimidazolidin-4-Yl]Methyl}-4′-(Trifluoromethyl)[Biphenyl]-2-Carboxamide] | 35 µM
Cc1c(C2(CNC(=O)c3ccc(Cl)cc3-c3ccc(C(F)(F)F)cc3)NC(=O)NC2=O)cnn1C (racemic) [Example 33, Rac-5-Chloro-N-{[4-(1,5-Dimethyl-1H-Pyrazol-4-Yl)-2,5-Dioxoimidazolidin-4-Yl]Methyl}-4′-(Trifluoromethyl)[Biphenyl]-2-Carboxamide] | 5.2 µM
Cc1cn(C)nc1C1(CNC(=O)c2ccccc2-c2ccc(C(F)(F)F)cc2)NC(=O)NC1=O (racemic) [Example 39, Rac-N-{[4-(1,4-Dimethyl-1H-Pyrazol-3-Yl)-2,5-Dioxoimidazolidin-4-Yl]Methyl}-4′-(Trifluoromethyl)[Biphenyl]-2-Carboxamide] | 10 µM
Cc1nocc1C1(CNC(=O)c2ccccc2-c2ccc(C(F)(F)F)nc2)NC(=O)NC1=O (racemic) [Example 41, Rac-N-{[4-(3-Methyl-1,2-Oxazol-4-Yl)-2,5-Dioxoimidazolidin-4-Yl]Methyl}-2-[6-(Trifluoromethyl)Pyridin-3-Yl]Benzamide] | 30 µM
O=C1NC(=O)C(CNC(=O)c2ccccc2-c2ccc(C(F)(F)F)cc2)(C2CCCC2)N1 (racemic) [Example 48, Rac-N-[(4-Cyclopentyl-2,5-Dioxoimidazolidin-4-Yl)Methyl]-4′-(Trifluoromethyl)[Biphenyl]-2-Carboxamide] | > 50 µM
Cc1cnn(C)c1C1(CNC(=O)c2ccccc2-c2ccc(C(F)(F)F)nc2)NC(=O)NC1=O (racemic) [Example 52, Rac-N-{[4-(1,4-Dimethyl-1H-Pyrazol-5-Yl)-2,5-Dioxoimidazolidin-4-Yl]Methyl}-2-[6-(Trifluoromethyl)Pyridin-3-Yl]Benzamide] | 19 µM
Cc1nsnc1C1(CNC(=O)c2ccccc2-c2ccc(C(F)(F)F)nc2)NC(=O)NC1=O (racemic) [Example 53, Rac-N-{[4-(4-Methyl-1,2,5-Thiadiazol-3-Yl)-2,5-Dioxoimidazolidin-4-Yl]Methyl}-2-[6-(Trifluoromethyl)Pyridin-3-Yl]Benzamide] | 41 µM
CCCC1(CNC(=O)c2ccccc2-c2ccc(C(F)(F)F)nc2)NC(=O)NC1=O (racemic) [Example 57, Rac-N-[(2,5-Dioxo-4-Propylimidazolidin-4-Yl)Methyl]-2-[6-(Trifluoromethyl)Pyridin-3-Yl]Benzamide] | > 50 µM

Now from value to compound:

IC50 | SMILES
6.5 µM | Cc1scnc1C1(CNC(=O)c2ccccc2-c2ccc(C(F)(F)F)cc2)NC(=O)NC1=O (racemic) [Example 1, Rac-N-{[4-(5-Methyl-1,3-Thiazol-4-Yl)-2,5-Dioxoimidazolidin-4-Yl]Methyl}-4′-(Trifluoromethyl)[Biphenyl]-2-Carboxamide]
19 µM | CCn1nccc1C1(CNC(=O)c2ccccc2-c2ccc(C(F)(F)F)cc2)NC(=O)NC1=O (racemic) [Example 4, Rac-N-{[4-(1-Ethyl-1H-Pyrazol-5-Yl)-2,5-Dioxoimidazolidin-4-Yl]Methyl}-4′-(Trifluoromethyl)[Biphenyl]-2-Carboxamide]
12 µM | Cc1ncsc1C1(CNC(=O)c2ccccc2-c2ccc(C(F)(F)F)cc2)NC(=O)NC1=O (racemic) [Example 5, Rac-N-{[4-(4-Methyl-1,3-Thiazol-5-Yl)-2,5-Dioxoimidazolidin-4-Yl]Methyl}-4′-(Trifluoromethyl)[Biphenyl]-2-Carboxamide]
6.2 µM | O=C1NC(=O)C(CNC(=O)c2ccccc2-c2ccc(C(F)(F)F)cc2)(c2ccnn2CC(F)(F)F)N1 (racemic) [Example 6, Rac-N-({2,5-Dioxo-4-[1-(2,2,2-Trifluoroethyl)-1H-Pyrazol-5-Yl]Imidazolidin-4-Yl}Methyl)-4′-(Trifluoromethyl)[Biphenyl]-2-Carboxamide]
> 50 µM | O=C1NC(=O)C(CNC(=O)c2ccccc2-c2ccc(C(F)(F)F)cc2)(c2ccccc2)N1 (racemic) [Example 12, Rac-N-[(2,5-Dioxo-4-Phenylimidazolidin-4-Yl)Methyl]-4′-(Trifluoromethyl)[Biphenyl]-2-Carboxamide]
17 µM | Cc1c(C2(CNC(=O)c3ccccc3-c3ccc(C(F)(F)F)cc3)NC(=O)NC2=O)cnn1C (racemic) [Example 14, Rac-N-{[4-(1,5-Dimethyl-1H-Pyrazol-4-Yl)-2,5-Dioxoimidazolidin-4-Yl]Methyl}-4′-(Trifluoromethyl)[Biphenyl]-2-Carboxamide]
7.75 µM | Cc1nc(C)c(C2(CNC(=O)c3ccccc3-c3ccc(C(F)(F)F)cc3)NC(=O)NC2=O)s1 (racemic) [Example 15, Rac-N-{[4-(2,4-Dimethyl-1,3-Thiazol-5-Yl)-2,5-Dioxoimidazolidin-4-Yl]Methyl}-4′-(Trifluoromethyl)[Biphenyl]-2-Carboxamide]
8.9 µM | Cc1nc(C)c(C2(CNC(=O)c3ccccc3-c3ccc(C(F)(F)F)nc3)NC(=O)NC2=O)s1 (racemic) [Example 34, Rac-N-{[4-(2,4-Dimethyl-1,3-Thiazol-5-Yl)-2,5-Dioxoimidazolidin-4-Yl]Methyl}-2-[6-(Trifluoromethyl)Pyridin-3-Yl]Benzamide]
10 µM | Cc1cn(C)nc1C1(CNC(=O)c2ccccc2-c2ccc(C(F)(F)F)nc2)NC(=O)NC1=O (racemic) [Example 35, Rac-N-{[4-(1,4-Dimethyl-1H-Pyrazol-3-Yl)-2,5-Dioxoimidazolidin-4-Yl]Methyl}-2-[6-(Trifluoromethyl)Pyridin-3-Yl]Benzamide]
> 50 µM | O=C1NC(=O)C(CNC(=O)c2ccccc2-c2ccc(C(F)(F)F)nc2)(C2CCOCC2)N1 (racemic) [Example 36, Rac-N-{[2,5-Dioxo-4-(Tetrahydro-2H-Pyran-4-Yl)Imidazolidin-4-Yl]Methyl}-2-[6-(Trifluoromethyl)Pyridin-3-Yl]Benzamide]
21 µM | O=C1NC(=O)C(CNC(=O)c2ccccc2-c2ccc(C(F)(F)F)nc2)(c2ccnn2C2CC2)N1 (racemic) [Example 40, Rac-N-{[4-(1-Cyclopropyl-1H-Pyrazol-5-Yl)-2,5-Dioxoimidazolidin-4-Yl]Methyl}-2-[6-(Trifluoromethyl)Pyridin-3-Yl]Benzamide]
> 50 µM | O=C1NC(=O)C(CNC(=O)c2ccccc2-c2ccc(C(F)(F)F)cc2)(c2cccnn2)N1 (racemic) [Example 42, Rac-N-{[2,5-Dioxo-4-(Pyridazin-3-Yl)Imidazolidin-4-Yl]Methyl}-4′-(Trifluoromethyl)[Biphenyl]-2-Carboxamide]
28 µM | Cc1ncoc1C1(CNC(=O)c2ccccc2-c2ccc(C(F)(F)F)cc2)NC(=O)NC1=O (racemic) [Example 43, Rac-N-{[4-(4-Methyl-1,3-Oxazol-5-Yl)-2,5-Dioxoimidazolidin-4-Yl]Methyl}-4′-(Trifluoromethyl)[Biphenyl]-2-Carboxamide]
11 µM | Cc1conc1C1(CNC(=O)c2ccccc2-c2ccc(C(F)(F)F)cc2)NC(=O)NC1=O (racemic) [Example 44, Rac-N-{[4-(4-Methyl-1,2-Oxazol-3-Yl)-2,5-Dioxoimidazolidin-4-Yl]Methyl}-4′-(Trifluoromethyl)[Biphenyl]-2-Carboxamide]
22 µM | Cc1nscc1C1(CNC(=O)c2ccccc2-c2ccc(C(F)(F)F)nc2)NC(=O)NC1=O (racemic) [Example 49, Rac-N-{[4-(3-Methyl-1,2-Thiazol-4-Yl)-2,5-Dioxoimidazolidin-4-Yl]Methyl}-2-[6-(Trifluoromethyl)Pyridin-3-Yl]Benzamide]
43 µM | O=C1NC(=O)C(CNC(=O)c2ccccc2-c2ccc(C(F)(F)F)nc2)(c2ccccc2)N1 (racemic) [Example 50, Rac-N-[(2,5-Dioxo-4-Phenylimidazolidin-4-Yl)Methyl]-2-[6-(Trifluoromethyl)Pyridin-3-Yl]Benzamide]
30 µM | Cc1nn(C)cc1C1(CNC(=O)c2ccccc2-c2ccc(C(F)(F)F)nc2)NC(=O)NC1=O (racemic) [Example 55, Rac-N-{[4-(1,3-Dimethyl-1H-Pyrazol-4-Yl)-2,5-Dioxoimidazolidin-4-Yl]Methyl}-2-[6-(Trifluoromethyl)Pyridin-3-Yl]Benzamide]
> 50 µM | CC(C)CCC1(CNC(=O)c2ccccc2-c2ccc(C(F)(F)F)cc2)NC(=O)NC1=O (racemic) [Example 58, Rac-N-{[4-(3-Methylbutyl)-2,5-Dioxoimidazolidin-4-Yl]Methyl}-4′-(Trifluoromethyl)[Biphenyl]-2-Carboxamide]
